The values that follow come from US12533362B2, “Methods for treating diseases associated with ciliopathies” (ALEXION PHARMACEUTICALS, INC., priority 2017, dated 2026).

For one assay, the system named is URECs. Put plainly: microarray differential expression analysis of URECs. Conditions: for top regulated genes signaling pathway, microarray: DMSO vs 0.2 μM, 2 μM and 10 μM. Type of assay: cell-based, human. Here is the method:
Microarray analysis was performed to identify expressed genes responsible for the alprostadil-mediated restoration of ciliogenesis.

Assay [1] concerns control normal epithelial cells. Description: automated cilia-based ciliogenesis assay in control normal epithelial cells. Format: cell-based, human. The text has this:
(§1) To identify compounds for treating diseases associated with ciliopathies such as, for example, NPHP, NPHP patient-derived cells were obtained and cell lines were established. Briefly, peeled renal epithelial cells, which are mostly proximal tubule cells (tbc) recovered from urine of NPHP1-deficient patients, were immortalized by retroviral gene transfer of SV40 T antigen. Cells were fixed and fluorescence-labeled with Hoechst (for nuclei staining), anti-γ-tubulin antibody (for basal bodies staining), and anti-ARL13B antibody (for cilia staining) for detection using immunofluorescence microscopy.
(§2) Briefly, NPHP patient-derived cells and control cells were cultured in complete media, at 39C (non-permissive temperature for SV40 expression), followed by automatic cilia analysis using immunofluorescence microscopy to measure ciliogenesis, e.g., in terms of % cilia. A spinning disk platform may be used for drug screening (FIG. 5, A-J) and ciliogenesis analysis of G3 multi-OMICs dataset (FIG. 29, A-E).
The cilia-based assay described above may be used to identify compounds that restore ciliogenesis. […] Automated random acquisition of 35 images per well may be performed, for example. Each image may have z-stack of 10 images taken at <1 μm intervals. Consecutive imaging of nucleus (Hoechst at 461 nm), basal body (γ-tubulin at 555 nm) and cilia (ARL13b at 647 nm) may be obtained.

Assay [2] concerns NPHP patient-derived cells. Put plainly: automated cilia-based ciliogenesis assay in NPHP patient-derived cells. Type of assay: cell-based, human.
Text: as §1, §2
The cilia-based assay described above may be used to identify compounds that restore ciliogenesis. […] Automated random acquisition of 35 images per well may be performed, for example. Each image may have z-stack of 10 images taken at <1 μm intervals.

A further assay concerns the target EP2 (Mus musculus, UniProt Q62053). Conditions: cited from earlier work.
The next assay has as its target T1, EP1 (Mus musculus, UniProt P35375).
T1 sequence (P35375 1-405): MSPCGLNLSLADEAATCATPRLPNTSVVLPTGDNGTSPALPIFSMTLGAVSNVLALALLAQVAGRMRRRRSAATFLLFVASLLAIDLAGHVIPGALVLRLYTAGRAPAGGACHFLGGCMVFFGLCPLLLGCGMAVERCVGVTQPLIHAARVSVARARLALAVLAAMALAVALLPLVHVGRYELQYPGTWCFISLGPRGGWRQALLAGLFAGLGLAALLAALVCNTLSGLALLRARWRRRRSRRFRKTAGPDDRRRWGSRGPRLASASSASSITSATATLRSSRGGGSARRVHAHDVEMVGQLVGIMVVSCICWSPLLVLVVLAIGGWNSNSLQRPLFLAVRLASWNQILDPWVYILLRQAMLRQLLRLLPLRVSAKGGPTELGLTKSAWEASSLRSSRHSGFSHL
Particulars: cited from earlier work.

In another assay the test system is zebrafish NPHP4 MO. Put plainly: zebrafish NPHP4 morpholino (MO) model. Format: in vivo. How it is done: Briefly, wild-type Tg(wt1b:GFP) transgenic zebrafish embryos were injected with morpholino (e.g., nphp4 ATG MO) at one-cell stage. At 8 hours post-fertilization (hpf), injected embryos were treated with drug or vehicle in PTU-egg water (1 mL in 12-well plates). At 24 hpf, drug treatment was renewed, and pronase was added at 36 hpf for chorion removal.

Another assay deals with EP4 (Mus musculus, UniProt P32240). Particulars: cited from earlier work.
Chain of EP4 (P32240 whole entry): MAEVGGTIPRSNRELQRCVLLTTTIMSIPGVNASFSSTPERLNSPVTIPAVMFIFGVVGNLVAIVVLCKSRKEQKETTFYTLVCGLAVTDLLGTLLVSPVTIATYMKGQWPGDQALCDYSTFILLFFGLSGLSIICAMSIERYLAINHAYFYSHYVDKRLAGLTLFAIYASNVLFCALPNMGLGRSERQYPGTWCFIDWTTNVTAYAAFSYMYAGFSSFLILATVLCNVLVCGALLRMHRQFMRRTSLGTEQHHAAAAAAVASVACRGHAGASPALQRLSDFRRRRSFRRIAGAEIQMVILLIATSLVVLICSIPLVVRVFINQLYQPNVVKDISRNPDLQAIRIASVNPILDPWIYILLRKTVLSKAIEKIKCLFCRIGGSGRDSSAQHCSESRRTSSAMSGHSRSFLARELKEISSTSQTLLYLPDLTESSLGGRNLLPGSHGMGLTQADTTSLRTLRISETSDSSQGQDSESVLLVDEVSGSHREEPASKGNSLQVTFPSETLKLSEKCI
The next assay deals with T2, EP3 (Mus musculus, UniProt P30557).
T2 sequence (P30557 1-365): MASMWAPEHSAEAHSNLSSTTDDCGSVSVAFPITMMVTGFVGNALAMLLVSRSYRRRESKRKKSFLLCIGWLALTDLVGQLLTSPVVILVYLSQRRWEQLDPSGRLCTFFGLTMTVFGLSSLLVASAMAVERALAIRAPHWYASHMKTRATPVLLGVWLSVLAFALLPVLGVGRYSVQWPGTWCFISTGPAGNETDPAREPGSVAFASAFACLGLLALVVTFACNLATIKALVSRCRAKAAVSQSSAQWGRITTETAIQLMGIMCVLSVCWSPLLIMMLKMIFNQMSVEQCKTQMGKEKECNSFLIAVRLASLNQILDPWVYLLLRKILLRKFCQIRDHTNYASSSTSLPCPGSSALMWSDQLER
Conditions: cited from earlier work.

The mark [3] stands for this setting: meta-analysis, multiple NPHP patient-derived cell lines.

Chain of EP2 (Q62053 whole entry): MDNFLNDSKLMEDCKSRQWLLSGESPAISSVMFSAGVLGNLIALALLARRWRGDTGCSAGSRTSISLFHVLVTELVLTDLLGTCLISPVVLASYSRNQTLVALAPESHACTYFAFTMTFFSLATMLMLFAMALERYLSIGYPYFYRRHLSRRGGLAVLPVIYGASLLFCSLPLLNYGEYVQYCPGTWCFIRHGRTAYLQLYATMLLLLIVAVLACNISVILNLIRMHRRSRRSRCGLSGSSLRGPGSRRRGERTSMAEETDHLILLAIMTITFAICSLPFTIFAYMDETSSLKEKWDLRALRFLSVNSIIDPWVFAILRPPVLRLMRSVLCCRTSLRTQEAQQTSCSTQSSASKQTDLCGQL

For the compound `CCCCC[C@H](O)/C=C/[C@H]1[C@H](O)CC(=O)[C@@H]1CCCCCCC(=O)O` [alprostadil, prostaglandin E1], the “top regulated genes signaling pathway, microarray” value in the assay with URECs (Qiazol extraction) is “down-regulation of cell adhesion and extracellular matrix, and up-regulation of interferon signaling”; with URECs (RLT extraction), “down-regulation of cell adhesion and extracellular matrix”. In addition, in the assay with URECs (pathway analysis crossing microarray data with RNAseq of control vs patient), the “alteration in gene expression in NPHP patient-derived cells compared to control cells” value was “could reverse alteration in gene expression”. Also, the “ciliogenesis, meta-analysis” value is recorded as “does not significantly affect ciliogenesis” in assay [1] (2 μM vs DMSO 0.04%, CTRL cells, FIG. 8A) and “significantly increases ciliogenesis” in assay [2] (vs DMSO 0.04%, PT1 cells, FIG. 8B). In addition, the ciliogenesis rate entry in assay [1] (2 μM vs DMSO, normal control cells, FIG. 11B) is listed as “no significant effect on ciliogenesis rate”; in assay [2] (2 μM vs DMSO, NPHP1(del) cell lines PT1, 1-03-P, 1-06-P1, 1-06-P2, 1-09-P, 1-10-P, 1-12-P, FIG. 11B), “significantly increases ciliogenesis rate”. The “% ciliated cells, dose response” value in assay [2] (alprostadil titration from 1 nM to 2 μM and from 100 pM to 2 μM, FIG. 7) is recorded as “significantly increases % ciliated cells in a dose-dependent manner”. Also, the “effect on ciliogenesis (percentage of ciliated cells) as compared with DMSO” value in assay [2] (drug screening, various tested concentrations, FIG. 5 / FIG. 6) was “significantly restored ciliogenesis”. In assay [2] (five independent experiments, FIGS. 26A-26E), the “% ciliated cells, multi-omics phenotypic analysis” value was “partially restores ciliogenesis”. Besides, in assay [2] (meta-analysis, FIG. 8C), the “increase in the effect on ciliogenesis in NPHP patient-derived cells versus control (DMSO 0.04%)” value is given as “about two-fold”. For the same compound, the “linear regression pooled slope value of effect on ciliogenesis” value in assay [2] (setting [3]) was found to be 1.414. The “linear regression range of slope values of effect on ciliogenesis” value in assay [2] (setting [3]) is on record as 1.333 to 1.506. Further, the IC50 at EP2 was 10 nM; at EP1, 36 nM; at EP4, 2.1 nM; at EP3, 1.1 nM. In addition, the “dorsal curvature (automated quantified parameter)” value in the assay on zebrafish NPHP4 MO (0.5 μM and 5 μM vs DMSO) is on record as “did not significantly affect dorsal curvature”. For the same compound, in the assay on zebrafish NPHP4 MO (0.5 μM and 5 μM vs DMSO, p>0.05 Fischer's exact test), the “body axis curvature (normal, class I, class II, class III)” value is “did not significantly affect body axis curvature”. The “percentage of severe pronephric cysts” value is on record as “significantly reduced the percentage of severe pronephric cysts” with zebrafish NPHP4 MO (0.5 μM vs DMSO, p<0.05 Fischer's exact test) and “significantly reduced the percentage of severe pronephric cysts” with zebrafish NPHP4 MO (5 μM vs DMSO).

Usually IC50 stands for the point on the concentration scale where inhibition reaches its midpoint.
